Test results: patent US8394785B2, “Methods for the treatment and amelioration of urticaria” (Jado Technologies GmbH, priority 2005, dated 2013)
“Also recorded” adds a separate entry of the source. Counter-ions that a name gives are not always drawn. Like-named read-outs stand apart in the source and are kept apart here.

How the values were obtained:
[1] = system: Rat basophilic leukemia (RBL-2H3) cells; test: Mast cell degranulation assay (β-hexosaminidase release); type: cell-based; settings: for IC50: 1 h, concentration at which 50% of maximal inhibition is reached, RBL-2H3, 60 min incubation with compound, DNP antigen challenge, read-out: ID50 (the source's name); for activity in the mast cell degranulation assay (in words): FIGS. 1 to 8
Protocol: The assay measures release of β-hexosaminidase as a marker of release of various preformed pharmacological agents in response to clustering of the high affinity IgE receptor (FcεRI) by means of multivalent antigen-IgE complexes. Rat basophilic leukemia (RBL-2H3) cells, a commonly used model of mast cell degranulation, are sensitized with anti-DNP specific IgE and challenged with multivalent DNP-BSA. The release of β-hexosaminidase into the supernatant is measured by enzymatic conversion of the fluorogenic substrate 4-methylumbelliferyl-N-acetyl-β-D-glucosaminide to N-acetyl-β-D-glucosamine and highly fluorescent methylumbelliferone and quantified by fluorescence detection in a Tecan Safire™ plate reader.
RBL-2H3 cells obtained from the German Collection of Microorganisms and Cell Cultures (Braunschweig, Germany) were maintained in 70% Minimum Essential Medium with Earle's Salts/20% RPMI 1640/10% heat-inactivated fetal calf serum) supplemented with 2 mM GlutaMAX™-I in 5% CO2 at 37° C. and routinely checked to be free of mycoplasma contamination. Cells grown in 175 cm^2 flasks were split with 0.05% Trypsin/EDTA and resuspended in 20 ml fresh medium. One hundred and 50 μl cell suspension were plated per well into 24 well cluster plates (Costar, Schiphol-Rijk, Netherlands) and cells were used one or two days after plating, respectively.
Two to 24 hours before incubation with test compounds the medium was removed and cells were sensitized with 0.4 μg/ml anti-DNP IgE in fresh medium. Following sensitization, cells were washed once with warm TyB and incubated for 60 min with test compound at a maximum of 100 μM or the highest non-toxic concentration (total vehicle concentration adjusted to 1%) or 1% vehicle in TyB at 37° C. DNP-HSA (0.1 μg/ml final concentration) or buffer alone was added and cells incubated for 15 min at 37° C. Plates were centrifuged at 4° C. for 5 min at 250×g and immediately transferred to ice. Supernatants were collected and the cells lysed with lysis buffer. Hexosaminidase activity in supernatants and lysates was measured by incubating 25 μl aliquots with 100 μl MUG substrate solution in a 96-well plate at 37° C. for 30 min. The reaction was terminated by addition of 150 μl stop solution. Fluorescence was measured in a Tecan Safire™ plate reader at 365 nm excitation and 440 nm emission settings.
Each compound is tested in duplicates in at least three independent experiments. β-hexosaminidase release is calculated after subtraction of unspecific release (release without addition of antigen) using the formula: % degranulation=100×RFU supernatant/RFU lysate
Inhibition of β-hexosaminidase release with respect to control is calculated as
follows: % inhibition=100×(1−(RFU supernatant of compound/RFU supernatant of control))

[2] = system: membrane integrity (lactate dehydrogenase release); test: Cytotoxicity test / membrane integrity assay (Promega Cytotox-One), lactate dehydrogenase release; settings: for CD50: concentration at which 50% of maximal lactate dehydrogenase release is reached; for cytotoxicity (in words): Table 2
[3] = system: membrane integrity (lactate dehydrogenase release)
[4] = Rattus norvegicus, RBL-2H3, read-out: maximum inhibition (concentration used)
[5] = Rattus norvegicus, RBL-2H3, at or 25 μM, read-out: inhibition of degranulation
[6] = Rattus norvegicus, RBL-2H3, 25 μM, read-out: maximum inhibition (concentration used)

For CCCCCCCCCCCCCCCCOC[C@H](COP(=O)([O-])OCC[N+](C)(C)C)OC [Compound 1, 2-O-methyl PAF C-16], the IC50 ([1]; Rattus norvegicus) was 2.9 µM, the inhibition at 10 µM [1, 4] was 89% and the inhibition at 25 µM [1, 5] was > 75%. The CD50 [2] was 48.2 µM.
In the case of CCCCCCCCCCCCCCCCOC[C@H](COP(=O)([O-])OCC[N+](C)(C)C)OCC [Compound 2, 2-O-ethyl PAF C-16], the IC50 ([1]; Rattus norvegicus) is reported as 3 µM, the inhibition at 10 µM [1, 4] is reported as 86% and the inhibition at 25 µM [1, 5] is reported as > 75%. For the same compound, the CD50 [2] was 57.2 µM.
For CCCCCCCCCCCCCCCCSCC(COC)COP(=O)([O-])OCC[N+](C)(C)C (centres unmarked) [Compound 4, 1-hexadecylmercapto-2-methoxymethyl-3-propyl phosphoric acid monocholine ester, reference compound], the IC50 ([1]; Rattus norvegicus) was 4.8 µM, the inhibition at 25 µM [1, 6] was 84% and the inhibition at 25 µM [1, 5] was > 75%.
In the case of CCCCCCCCCCCCCCCCCCOCC(COP(=O)([O-])OCC[N+](C)(C)C)OC (centres unmarked) [Compound 5, edelfosine, reference compound], the IC50 ([1]; Rattus norvegicus) is reported as 6.2 µM, the inhibition at 25 µM [1, 6] is reported as 79% and the inhibition at 25 µM [1, 5] is reported as > 75%. For the same compound, the “cytotoxicity (in words)” value [2] was “higher cytotoxicity” and the CD50 [2] was 59.0 µM.
Work on C/C=C/C(=O)O[C@H](COCCCCCCCCCCCCCCCC)COP(=O)([O-])OCCCCCC[N+](C)(C)C [Compound 7, butenoyl PAF C-16] yielded an IC50 ([1]; Rattus norvegicus) of 11 µM, an inhibition at 25 µM [1, 6] of 69% and a CD50 [2] of 79.6 µM.
Compound CCCCCCCCCCCCCCCCOC[C@H](COP(=O)([O-])OCC[N+]1(C)CCCC1)OC(C)=O [Compound 8, pyrrolidino PAF C-16] has an IC50 ([1]; Rattus norvegicus) of 13.7 µM, an inhibition at 25 µM [1, 6] of 53% and a CD50 [2] of 50.2 µM.
For CCCCCCCCCCCCCCCCCCOP(=O)([O-])OC1CC[N+](C)(C)CC1 [Compound 9, octadecyl-(N,N-dimethyl-piperidinio-4-yl)-phosphate, reference compound], the IC50 ([1]; Rattus norvegicus) was 2.8 µM, the inhibition at 10 µM [1, 4] was 85% and the inhibition at 25 µM [1, 5] was > 75%. For the same compound, the “cytotoxicity (in words)” value [2] was “less cytotoxic; also recorded: low toxicity” and the CD50 [2] was 76.7 µM.
For CCCCCCCCCCCCCCCCOC[C@H](COP(=O)([O-])OCC[N+](C)(C)C)SC(C)=O [Compound 12, 2-thio PAF C-16], the inhibition at 25 µM [1, 6] was 41% and the CD50 [2] was 86.5 µM.
CCCCCCCCCCCCCCCCOC[C@@H](O)COP(=O)([O-])OCC[N+](C)(C)C [Compound 13, 1-hexadecyl-sn-glycero-3-phosphocholine 3-sn-lysophosphatidylcholine] showed an inhibition at 25 µM [1, 6] of 41% and a CD50 [2] of 58.8 µM.
For CCCCCCCCCCCCCCCCOC[C@H](COP(=O)([O-])OCC[N+](C)(C)C)OC(C)=O [Compound 14, 1-hexadecyl-2-acetyl-sn-glycero-3-phosphocholine], the inhibition at 25 µM [1, 6] was 42% and the CD50 [3] was 57.7 µM.
For CCCCCCCCCCCCCCCCOC[C@H](COP(=O)([O-])OCCCCCC[N+](C)(C)C)OC(C)=O [Compound 16, 1-O-hexadecyl-2-acetyl-sn-glycero-3-phospho-(N,N,N-trimethyl)hexanolamine], the inhibition at 25 µM [1, 6] was 45% and the CD50 [2] was 51.3 µM.
In the case of CCCCCCCCCCCCOP(=O)([O-])OCC[N+](C)(C)C [Compound 17, Dodecylphosphocholine], the IC50 ([1]; Rattus norvegicus) is reported as 7.1 µM, the inhibition at 25 µM [1, 6] is reported as 76% and the inhibition at 25 µM [1, 5] is reported as > 75%. The CD50 [2] was >100 µM.
Compound CCCCCCCCCCCCCCCC(=O)OC[C@H](O)COP(=O)([O-])OCC[N+](C)(C)C [Compound 20, 1-palmitoyl-2-hydroxy-sn-glycero-3-phosphocholine] has an inhibition at 25 µM [1, 6] of 26% and a CD50 [3] of 70.3 µM.
In the case of CCCCCCCCCCCCCCCCOC[C@H](CO)OC [Compound 22, 1-O-hexa-decyl-2-O-methyl-sn-glycerol, reference compound], the “activity in the mast cell degranulation assay (in words)” value (shortened to “activity”) [1] is reported as “poor results”, the inhibition at 100 µM ([1]; Rattus norvegicus, RBL-2H3, 100 μM, read-out: maximum inhibition (concentration used)) is reported as 15% and the CD50 [2] is reported as >100 µM.
In the case of CCCCCCCCCCCCCCCCCCOP(=O)([O-])OCC[N+](C)(C)C [Compound 23, octadecylphosphocholine (C18:0)], the IC50 ([1]; Rattus norvegicus) is reported as 2.6 µM, the inhibition at 10 µM [1, 4] is reported as 82% and the inhibition at 25 µM [1, 5] is reported as > 75%. The CD50 [2] was >50 µM.
With CCCCCCCC/C=C/CCCCCCCCOP(=O)([O-])OCC[N+](C)(C)C [Compound 24, 1-elaidylphosphocholine (C18:1, trans)] the IC50 ([1]; Rattus norvegicus) was 2.9 µM, the inhibition at 10 µM [1, 4] was 92% and the inhibition at 25 µM [1, 5] was > 75%. For the same compound, the CD50 [2] was 59.6 µM.
In the case of CCCCCCCCCCCCCCCCOCC(COP(=O)([O-])OCC[N+](C)(C)C)OC(C)=O (centres unmarked) [Compound 25, 3-O-hexadecyl-2-acetyl-sn-glycero-1-posphocholine], the IC50 ([1]; Rattus norvegicus) is reported as 3 µM, the inhibition at 10 µM [1, 4] is reported as 82% and the inhibition at 25 µM [1, 5] is reported as > 75%.
CCCCCCCCCCCCCCCCOCCCOP(=O)([O-])OCC[N+](C)(C)C [Compound 26, 1-O-hexadecyl-propanediol-3-phosphocholine] was tested, and the IC50 ([1]; Rattus norvegicus) was 3.1 µM, the inhibition at 10 µM [1, 4] was 90% and the inhibition at 25 µM [1, 5] was > 75%.
CCCCCCCCCCCCCCCCCCOCC(C)(C)COP(=O)([O-])OCC[N+](C)(C)C [Compound 27, 1-O-octadecyl-(2,2-dimethyl)-propanediol-3-phosphocholine] was tested, and the IC50 ([1]; Rattus norvegicus) was 8 µM, the inhibition at 25 µM [1, 6] was 85% and the inhibition at 25 µM [1, 5] was > 75%.
CCCCCCCCCCCCCCCCOC[C@H](COP(=O)([O-])OCC[N+](C)(C)C)OC(=O)CC [Compound 28, 1-O-hexadecyl-2-propionyl-sn-glycero-3-phosphocholine] showed an IC50 ([1]; Rattus norvegicus) of 13.1 µM and an inhibition at 25 µM [1, 6] of 64%.
In the case of O=C(O)c1cc(=O)c2c(OCC(O)COc3cccc4oc(C(=O)O)cc(=O)c34)cccc2o1 [cromogylcic acid, reference compound], the “activity” value [1] is reported as “no or only low activity”.
With CN1CCC(=C2c3ccccc3CC(=O)c3sccc32)CC1 [ketotifen fumarate, reference compound] the “activity” value [1] was “no or only low activity”.
